Data published in patent publication US20240197661A1, “ORAL DOSAGE FORMS OF METHYL HYDROGEN FUMARATE AND PRODRUGS THEREOF” (Arbor Pharmaceuticals, LLC, priority 2012, published 2024).

What was measured:
healthy adult subjects = assay: safety and tolerability in single-dose food effect study; format: in vivo, human; details: single 100 mg dose, fed and fasted
Source text: Twelve healthy adult volunteers (males and females) participated in the study. All twelve subjects received […] a dosage form of Example 3, once in a fed condition and once in a fasted condition, with a two-week washout between treatments. The fasted dosing was achieved by dosing the subject following an overnight fast while the fed dosing was achieved by dosing the subject after consuming a high fat-content breakfast.
All 12 subjects completed the dosing period. All adverse events were mild.

[1] = tested on: subjects with moderate-to-severe plaque psoriasis; assay: 24-week placebo-controlled efficacy study in plaque psoriasis; format: in vivo, human; details: for patients achieving PASI-75 / patients achieving an IGA score of 0 or 1: week 24
Description: (§1) Study subjects were enrolled at 76 US sites. Patients had chronic plaque psoriasis for more than 6 months, PASI (Psoriasis Area and Severity Index) scores ≥12, IGA (Investigator's Global Assessment) Scores ≥3, and psoriasis BSA (Body Surface Area) ≥10%. Altogether 426 subjects were randomized in a 1:1:1:1 ratio into 4 dose arms: 400 mg QD, 400 mg BID, 600 mg BID, and placebo. A 5-week titration phase was followed by 19 weeks of treatment. The co-primary end points at week 24 were the percentages of patients achieving an at least 75% reduction of their baseline PASI (“PASI-75”) and an IGA score of ‘clear’ or ‘almost clear’ (i.e., 0 or 1).

[2] = tested on: subjects with moderate-to-severe plaque psoriasis; assay: safety (adverse events) in 24-week plaque psoriasis study; format: in vivo, human
Description: as §1

[3] = degradation of MHF prodrugs in pH 6.0 phosphate buffer with sodium acetate
Description: Each prodrug was placed in a pH 6.0 phosphate buffer with multiple concentrations of sodium acetate (0.0 M, 0.1 M, 0.5 M, 2.0 M, 3.0 M, and 4.0 M) at 40° C. The presence of prodrug was measured over time up to 42 hours. The rate of prodrug degradation can be expressed according to the following formula: In (A)=In (A0)−Kobs●t, wherein A is the prodrug concentration, A0 is the prodrug concentration at time zero and Kobs is the observed slope of the curve plotting In (A) versus time (t). Thus, the higher the Kobs, the more quickly the prodrug is degrading.

effect of acetate on degradation rate compared to DMF ([3]; pH 6.0, 40° C.): more pronounced
Compound: CCN(CC)C(=O)COC(=O)/C=C/C(=O)OC [PPC-06, (N,N-Diethylcarbamoyl)methyl methyl (2E)but-2-ene-1,4-dioate]
severity of adverse events (healthy adult subjects): mild
tolerability during the trial (healthy adult subjects): well tolerated
patients achieving PASI-75 ([1]; 400 mg BID, p=0.002 vs placebo): 47.2%
patients achieving an IGA score of 0 or 1 ([1]; 400 mg BID, p=0.021 vs placebo): 41.4%
patients achieving PASI-75 ([1]; 400 mg QD, p=0.004 vs placebo): 39.7%
patients achieving an IGA score of 0 or 1 ([1]; 400 mg QD, p=0.044 vs placebo): 35.7%
patients achieving PASI-75 ([1]; 600 mg BID, p=0.004 vs placebo): 44.3%
patients achieving an IGA score of 0 or 1 ([1]; 600 mg BID, p=0.010 vs placebo): 44.4%
efficacy compared to placebo ([1]; 24 weeks of treatment, three dose strengths): significant efficacy compared to placebo
patients reporting diarrhea (TEAE) ([2]; 400 mg BID): 18%
patients reporting diarrhea (TEAE) ([2]; 400 mg QD): 7%
patients reporting diarrhea (TEAE) ([2]; 600 mg BID): 23%
flushing reported ([2]; PPC-06 treatment arms): 1-2%
subjects developing CTCAE grade 3 lymphopenia ([2]; during treatment, recovered on discontinuation): Two
new or unexpected adverse events compared to DMF drugs ([2]; in vivo): No new or unexpected adverse events
severity of most cases of diarrhea ([2]; in vivo): mild to moderate
nausea and abdominal pain reported ([2]; overall PPC-06 population): less than 10%
formation rates of both primary degradation products ([3]; 14.6 hour exposure, pH 6.0, 40° C., varying acetate concentration): increased with increasing acetate concentration
degradation rate (Kobs) as a function of acetate concentration ([3]; pH 6.0 phosphate buffer, sodium acetate 0.0-4.0 M, 40° C., up to 42 hours): increased with increasing concentrations of acetate
